For one series, the system named is Swiss albino mice. Nature of the series: Plasma triglyceride and total cholesterol lowering activity in Swiss albino mice and Guinea pigs. The class given is in vivo, mouse. As to conditions: oral, 6 days. How it is done: c) Plasma Triglyceride and Total Cholesterol Lowering Activity in Swiss Albino Mice and Guinea Pigs
Male Swiss albino mice (SAM) and male Guinea pigs were obtained from NIN and housed in DRF animal house. All these animals were maintained under 12 hour light and dark cycle at 25±1° C. Animals were given standard laboratory chow (NIN Hyderabad, India) and water, ad libitum. SAM of 20-25 g body weight range and Guinea pigs of 500-700 g body weight range were used (Oliver, P., Plancke, M. O., Marzin, D., Clavey, V., Sauzieres, J and Fruchart, J. C. Effects of fenofibrate, gemfibrozil and nicotinic acid on plasma lipoprotein levels in normal and hyperlipidemic mice. Atherosclerosis. 1988. 70: 107-114).
The test compounds were administered orally to Swiss albino mice at 0.3 to 30 mg/kg/day dose for 6 days. Control mice were treated with vehicle (0.25% Carboxymethylcellulose; dose 10 ml/kg). The test compounds were administered orally to Guinea pigs at 0.3 to 30 mg/kg/day dose for 6 days. Control animals were treated with vehicle (0.25% Carboxymethylcellulose; dose 5 ml/kg).
The blood samples were collected in fed state 1 hour after drug administration on 0 and 6 day of treatment. The blood was collected from the retro-orbital sinus through heparinised capillary in EDTA containing tubes. After centrifugation, plasma sample was separated for triglyceride and total cholesterol (Wieland, O. Methods of Enzymatic analysis. Bergermeyer, H. O., Ed., 1963. 211-214; Trinder, P. Ann. Clin. Biochem. 1969. 6: 24-27). Measurement of plasma triglyceride, total cholesterol and HDL were done using commercial kits (Dr. Reddy's Diagnostic Division, Hyderabad, India).
1. Percent reduction in Blood sugar/triglycerides/total cholesterol were calculated according to the formula: [formula]

The nature of series [1]: Single dose oral pharmacokinetic studies in male Wistar rats. The format is in vivo, rat. To be noted: fasted, suspension in 0.25% sodium CMC. How it is done: Single Dose Oral Pharmacokinetic Studies
Male Wistar rats (220-250 gm) were used in the experiments. The animals were maintained under standard laboratory conditions and had free access to feed and water ad libitum. Before experimentation animals were fasted overnight (˜15 h) during which they had free access to water ad libitum.
An amount equivalent to 30 mg of drug was weighed accurately and transferred into a clean mortar and triturated to obtain a fine powder. To this 0.5 ml of 0.25% sodium carboxy methyl cellulose (sodium CMC) was added to obtain a paste. To the obtained paste remaining 2.5 ml of sodium CMC was added to make up the volume to 3 ml. Based on the animal weight appropriate volume (body weight×3) of the prepared suspension was administered through oral gavage.
After dosing, at designated time points (0.5, 1, 2, 3, 5, 8, 12 and 24 h) 200 μl of blood was collected from retro orbital plexus into 0.5 ml eppendorff tubes containing EDTA (10 μl of 200 mg/ml solution in Milli Q water). Blood was centrifuged at 12,800 rpm for 5 min and obtained plasma and stored at −20° C. till further analysis.
100μl plasma was transferred into a clean and dry centrifuge tube. To this internal standard (10 μl of 100 μg/ml) was added and extracted with 2 ml of extraction recovery solvent. The contents were vortexed for 2 min, followed by centrifugation for 10 min at 2800 rpm. Clear organic layer (2×0.75 ml) was separated and dried under nitrogen gas at 50° C. The residue was reconstituted with 150 μl of mobile phase and vortexed for 20 sec, from this 50 μl was injected onto HPLC column.
Pharmacokinetic parameters were calculated by non-compartmental model analysis. The peak plasma concentration (Cmax) and the corresponding time (Tmax)were directly obtained from the raw data. The area under the plasma concentration versus time curve up to the last quantifiable time point, AUC(0−t) was obtained by the linear and log-linear trapezoidal summation. The AUC(0−t) extrapolated to infinity (i.e., AUC(0−∞)) by adding the quotient of Clast/Kel, where Clast represents the last measurable time concentration and Kel represents the apparent terminal rate constant. Kel was calculated by the linear regression of the log-transformed concentrations of the drug in the terminal phase. The half-life of the terminal elimination phase was obtained using the relationship t½=0.693/Kel.

The target in the next series is T1, hPPARγ1 (Homo sapiens, UniProt P37231).
T1 construct: expressed in transfected cells; host or cells: HEK-293
T1 sequence (P37231 238-503 limits assumed): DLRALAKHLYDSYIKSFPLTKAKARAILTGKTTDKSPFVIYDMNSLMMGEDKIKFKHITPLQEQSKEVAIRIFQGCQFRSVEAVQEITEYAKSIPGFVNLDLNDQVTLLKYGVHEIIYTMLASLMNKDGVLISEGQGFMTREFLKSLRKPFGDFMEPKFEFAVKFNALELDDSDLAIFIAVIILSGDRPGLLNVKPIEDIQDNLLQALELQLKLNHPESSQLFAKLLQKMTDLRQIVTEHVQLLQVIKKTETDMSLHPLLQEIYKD
The series is described as follows: Determination of hPPARγ activity (GAL4 fusion luciferase reporter in transfected HEK-293 cells). The format is cell-based. To be noted: compound concentration 1 μM. How it is done:
b) Determination of hPPARγ Activity
Ligand binding domain of hPPARγ1 was fused to DNA binding domain of Yeast transcription factor GAL4 in eucaryotic expression vector. Using lipofectamine (Gibco BRL, USA) as transfecting reagent HEK-293 cells were transfected with this plasmid and a reporter plasmid harboring the luciferase gene driven by a GAL4 specific promoter. Compound was added at 1 μM concentration after 48 hrs of transfection and incubated overnight. Luciferase activity as a function of drug binding/activation capacity of PPARγ1 was measured using Packard Luclite kit (Packard, USA) in Packard Top Count (Ivan Sadowski, Brendan Bell, Peter Broag and Melvyn Hollis. Gene. 1992. 118: 137-141; Guide to Eukaryotic Transfections with Cationic Lipid Reagents. Life Technologies, GIBCO BRL, USA).
For orientation: In a reporter assay the amount or activity of a reporter protein is the signal.

Another series addresses T2, hPPARα (Homo sapiens, UniProt Q07869).
T2 construct: expressed in transfected cells; host or cells: HEK-293
T2 sequence (Q07869 239-466 limits assumed): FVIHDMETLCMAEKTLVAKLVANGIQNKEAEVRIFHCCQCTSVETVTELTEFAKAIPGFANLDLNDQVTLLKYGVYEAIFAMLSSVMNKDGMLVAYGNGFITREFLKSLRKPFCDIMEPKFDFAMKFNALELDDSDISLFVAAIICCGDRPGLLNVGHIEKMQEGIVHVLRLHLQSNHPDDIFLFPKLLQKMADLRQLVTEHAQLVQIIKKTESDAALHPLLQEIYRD
Nature of the series: Determination of hPPARα activity (GAL4 fusion luciferase reporter in transfected HEK-293 cells). To be noted: compound concentration 50 μM. The format is cell-based. On the procedure: a) Determination of hPPARα Activity
Ligand binding domain of hPPARα was fused to DNA binding domain of Yeast transcription factor GAL4 in eucaryotic expression vector. Using superfect (Qiagen, Germany) as transfecting reagent HEK-293 cells were transfected with this plasmid and a reporter plasmid harboring the luciferase gene driven by a GAL4 specific promoter. Compound was added at different concentrations after 42 hrs of transfection and incubated overnight. Luciferase activity as a function of compound binding/activation capacity of PPARα was measured using Packard Luclite kit (Packard, USA) in Top Count (Ivan Sadowski, Brendan Bell, Peter Broag and Melvyn Hollis. Gene. 1992. 118: 137-141; Superfect Transfection Reagent Handbook. February 1997. Qiagen, Germany).

As usually defined, the AUC(0-t) is exposure summed from dosing to a finite time, without extrapolation to infinity. The term Cmax denotes the highest concentration seen after dosing. Broadly, the Tmax is the time from dosing to the highest level. In general, t½ refers to the time in which the quantity being followed falls by half. Lower therefore signals fast loss. One may read the melting point as the temperature, or range, at which the solid turns liquid.

Structures can show the parent of a compound that is named as a salt.

As for `CCCc1nn(C)c2c(=O)n(CCOc3ccc(CC(OCC)C(=O)[O-])cc3)c(CC)nc12.CCCc1nn(C)c2c(=O)n(CCOc3ccc(CC(OCC)C(=O)[O-])cc3)c(CC)nc12.[Mg+2]` (single isomer, unassigned; (-)) [Example 31, (−)-3-[4-[2-(1-Methyl-5-ethyl-7-oxo-3-propyl-6,7-dihydro-1H-pyrazolo[4,3-d]pyrimidin-6-yl)ethoxy]phenyl]-2-ethoxypropionic acid magnesium salt], the “Triglyceride Lowering (%)” value in the series with Swiss albino mice (dose 3 mg/kg) is 84%. In addition, in series [1], the “AUC (0-∞)” value was 65930 ng·h/mL, the “AUC(0-t)” value was 64700 ng·h/mL, the Cmax worked out at 19150 ng/mL and the Kel was determined as 0.34 h⁻¹. In addition, in series [1], the Tmax is 2.75 h and the t½ is 2.24 h.
With `CCO[C@@H](Cc1ccc(OCCn2c(CC)nc3ccccc3c2=O)cc1)C(=O)O` [Example 1, (−)-3-[4-[2-(2-Ethyl-4-oxo-3,4-dihydroquinazolin-3-yl)ethoxy]phenyl]-2-ethoxypropanoic acid phenyl glycinol salt], the “Triglyceride Lowering (%)” value in the series with Swiss albino mice (dose 3 mg/kg) is 87%.
The same measure, in the same setting: with `CCO[C@@H](Cc1ccc(OCCn2c(CC)nc3ccccc3c2=O)cc1)C(=O)O` [Example 3, (−)-3-[4-[2-(2-Ethyl-4-oxo-3,4-dihydroquinazolin-3-yl)ethoxy]phenyl]-2-ethoxypropanoic acid dicyclohexylamine salt] the figure was 81%.
In the case of `CCO[C@@H](Cc1ccc(OCCn2c(N=[N+]=[N-])nc3ccccc3c2=O)cc1)C(=O)O` [Example 12, (−)-3-[4-[2-(2-Azido-4-oxo-3,4-dihydroquinazolin-3-yl)ethoxy]phenyl]-2-ethoxypropanoic acid magnesium salt], the “Triglyceride Lowering (%)” value in the series on Swiss albino mice (dose 0.3 mg/kg) turned out to be 37%.
`CCCc1nn(C)c2c(=O)n(CCOc3ccc(CC(OCC)C(=O)[O-])cc3)c(C)nc12.CCCc1nn(C)c2c(=O)n(CCOc3ccc(CC(OCC)C(=O)[O-])cc3)c(C)nc12.[Mg+2]` (centres unmarked) [Example 16, 3-[4-[2-(1,5-Dimethyl-7-oxo-3-propyl-6,7-dihydro-1H-pyrazolo[4,3-d]pyrimidin-6-yl)ethoxy]phenyl]-2-ethoxypropionic acid magnesium salt] yielded a PPARγ at hPPARγ1 of 13.5. The molecule further showed a PPARα at hPPARα of 3.4.
In the same order, the values of `CCCc1nn(C)c2c(=O)n(CCOc3ccc(C[C@H](OCC)C(=O)[O-])cc3)c(C)nc12.[Na+]` [Example 20, 3-[4-[2-(1,5-Dimethyl-7-oxo-3-propyl-6,7-dihydro-1H-pyrazolo[4,3-d]pyrimidin-6-yl)ethoxy]phenyl]-2-ethoxypropionic acid sodium salt] are 13.0 and 3.5.
On to `CCCc1nn(C)c2c(=O)n(CCOc3ccc(C[C@H](OCC)C(=O)O)cc3)c(C)nc12` [Example 23, 3-[4-[2-(1,5-Dimethyl-7-oxo-3-propyl-6,7-dihydro-1H-pyrazolo[4,3-d]pyrimidin-6-yl)ethoxy]phenyl]-2-ethoxypropionic acid S-(+)-phenylglycinol salt], for which, at hPPARγ1, the PPARγ is on record as 11.5. On hPPARα, this molecule displayed a PPARα of 3.4.
`CCCc1nn(C)c2c(=O)n(CCOc3ccc(C[C@H](OCC)C(=O)[O-])cc3)c(CC)nc12.[Na+]` [Example 35, (−)-3-[4-[2-(1-Methyl-5-ethyl-7-oxo-3-propyl-6,7-dihydro-1H-pyrazolo[4,3-d]pyrimidin-6-yl)ethoxy]phenyl]-2-ethoxypropionic acid sodium salt] registered a melting point of 112 to 114 °C.
`CCCc1nn(C)c2c(=O)n(CCOc3ccc(C[C@H](OCC)C(=O)O)cc3)c(CC)nc12` [Example 36, (−)-3-[4-[2-(1-Methyl-5-ethyl-7-oxo-3-propyl-6,7-dihydro-1H-pyrazolo[4,3-d]pyrimidin-6-yl)ethoxy]phenyl]-2-ethoxypropionic acid arginine salt] displayed a PPARγ on hPPARγ1 of 11.4.
For `CCCc1nn(C)c2c(=O)n(CCOc3ccc(C[C@H](OCC)C(=O)O)cc3)c(CC)nc12` [Example 38, (−)-3-[4-[2-(1-Methyl-5-ethyl-7-oxo-3-propyl-6,7-dihydro-1H-pyrazolo[4,3-d]pyrimidin-6-yl)ethoxy]phenyl]-2-ethoxypropionic acid S-(+)-phenylglycinol salt], at hPPARγ1, the PPARγ is 12.0. This molecule also registered a PPARα at hPPARα of 3.3.
In the same order, the values of `CCCc1nn(C)c2c(=O)n(CCOc3ccc(C[C@H](OCC)C(=O)O)cc3)c(CC)nc12` [Example 41, (−)-3-[4-[2-(1-Methyl-5-ethyl-7-oxo-3-propyl-6,7-dihydro-1H-pyrazolo[4,3-d]pyrimidin-6-yl)ethoxy]phenyl]-2-ethoxypropionic acid dicyclohexylamine salt] are 13.0 and 3.1.
For the molecule `CCCc1nn(C)c2c(=O)n(CCOc3ccc(C[C@H](OCC)C(=O)O)cc3)c(CC)nc12` [Example 45, (−)-3-[4-[2-(1-Methyl-5-ethyl-7-oxo-3-propyl-6,7-dihydro-1H-pyrazolo[4,3-d]pyrimidin-6-yl)ethoxy]phenyl]-2-ethoxypropionic acid Lysine salt], the “Triglyceride Lowering (%)” value with Swiss albino mice (dose 3 mg/kg) turned out to be 81%. Also, in series [1], the “AUC (0-∞)” value was found to be 101290 ng·h/mL, the “AUC(0-t)” value turned out to be 99330 ng·h/mL, the Cmax stood at 24220 ng/mL and the Kel was found to be 0.42 h⁻¹. Besides, in series [1], the Tmax was determined as 2.38 h and the t½ is 1.72 h.

The record behind these values is patent US20020169175A1, “Pharmaceutically acceptable salts of heterocyclic compounds” (DR. REDDY'S LABORATORIES LTD., priority 2001, published 2002).
